Experimental data as given in ChEMBL document CHEMBL3044779, “The action of herbicides on fatty acid biosynthesis and elongation in barley and cucumber” (Pest Manag Sci, 2010).
Active and inactive are the calls of the source. The calls are words filed in the database; no cut-off is given here.

Tests used:
[1] = tested on: Cucumis sativus; test: Inhibition of fatty acid synthesis in Cucumis sativus (cucumber) using [14C]malonate assessed as inhibition of [14C]-labeled 18C fatty acid production at 200 uM after 3 hr by liquid scintillation counting; type: functional, organism-based
[2] = tested on: Cucumis sativus; test: Inhibition of fatty acid synthesis in Cucumis sativus (cucumber) using [14C]acetate assessed as [14C]-labeled 22C fatty acid level at 200 uM after 3 hr by liquid scintillation counting (reference value: 17.9 +/- 2.5%); type: functional; design: scale not given: the % may be the effect or the level left
[3] = tested on: Cucumis sativus; test: Inhibition of fatty acid synthesis in Cucumis sativus (cucumber) assessed as inhibition of [14C]malonate incoporation in total fatty acids at 200 uM measured after 3 hr by liquid scintillation counting; type: functional, organism-based
[4] = tested on: Cucumis sativus; test: Inhibition of fatty acid synthesis in Cucumis sativus (cucumber) using [14C]malonate assessed as inhibition of [14C]-labeled 16C fatty acid production at 200 uM after 3 hr by liquid scintillation counting; type: functional, organism-based
[5] = tested on: Cucumis sativus; test: Inhibition of fatty acid synthesis in Cucumis sativus (cucumber) using [14C]acetate assessed as [14C]-labeled 24C fatty acid level at 200 uM after 3 hr by liquid scintillation counting (reference value: 6.5 +/- 1%); type: functional; design: scale not given: the % may be the effect or the level left
[6] = tested on: Hordeum vulgare; test: (§1) Inhibition of fatty acid synthesis in Hordeum vulgare (barley) assessed as inhibition of [14C]acetate incoporation in total fatty acids at 200 uM measured as total disintegration per g of fresh weight after 3 hr by liquid scintillation counting (reference value: 5.7 +/- 0.5 dpm x 10^6 g'1 fresh wt); type: functional
[7] = tested on: Cucumis sativus; test: Inhibition of fatty acid synthesis in Cucumis sativus (cucumber) using [14C]acetate assessed as [14C]-labeled 20C fatty acid level at 200 uM after 3 hr by liquid scintillation counting (reference value: 5.1 +/- 0.7%); type: functional; design: scale not given: the % may be the effect or the level left
[8] = tested on: Hordeum vulgare; test: Inhibition of fatty acid synthesis in Hordeum vulgare (barley) using [14C]malonate assessed as inhibition of [14C]-labeled 18C fatty acid production at 200 uM after 3 hr by liquid scintillation counting; type: functional, organism-based
[9] = tested on: Cucumis sativus; test: as §1, with “Cucumis sativus (cucumber)” for “Hordeum vulgare (barley)”, “6.4” for “5.7”, “1.2” for “0.5”; type: functional
[10] = tested on: Hordeum vulgare; test: Inhibition of fatty acid synthesis in Hordeum vulgare (barley) using [14C]acetate assessed as [14C]-labeled 16C fatty acid level at 200 uM after 3 hr by liquid scintillation counting (reference value: 29.5 +/- 1.3%); type: functional; design: scale not given: the % may be the effect or the level left
[11] = tested on: Cucumis sativus; test: Inhibition of fatty acid synthesis in Cucumis sativus (cucumber) using [14C]malonate assessed as inhibition of [14C]-labeled 24C fatty acid production at 200 uM after 3 hr by liquid scintillation counting; type: functional, organism-based
[12] = tested on: Cucumis sativus; test: Inhibition of fatty acid synthesis in Cucumis sativus (cucumber) using [14C]acetate assessed as [14C]-labeled 18C fatty acid level at 200 uM after 3 hr by liquid scintillation counting (reference value: 41.2 +/- 1.1%); type: functional; design: scale not given: the % may be the effect or the level left
[13] = tested on: Hordeum vulgare; test: Inhibition of fatty acid synthesis in Hordeum vulgare (barley) using [14C]acetate assessed as [14C]-labeled 22C fatty acid level at 200 uM after 3 hr by liquid scintillation counting (reference value: 5.5 +/- 0.2%); type: functional; design: scale not given: the % may be the effect or the level left
[14] = tested on: Hordeum vulgare; test: Inhibition of fatty acid synthesis in Hordeum vulgare (barley) assessed as inhibition of [14C]malonate incoporation in total fatty acids at 200 uM measured after 3 hr by liquid scintillation counting; type: functional, organism-based
[15] = tested on: Hordeum vulgare; test: Inhibition of fatty acid synthesis in Hordeum vulgare (barley) using [14C]malonate assessed as inhibition of [14C]-labeled 20C fatty acid production at 200 uM after 3 hr by liquid scintillation counting; type: functional, organism-based
[16] = tested on: Cucumis sativus; test: Inhibition of fatty acid synthesis in Cucumis sativus (cucumber) using [14C]malonate assessed as inhibition of [14C]-labeled 20C fatty acid production at 200 uM after 3 hr by liquid scintillation counting; type: functional, organism-based
[17] = tested on: Cucumis sativus; test: Inhibition of fatty acid synthesis in Cucumis sativus (cucumber) using [14C]acetate assessed as [14C]-labeled 16C fatty acid level at 200 uM after 3 hr by liquid scintillation counting (reference value: 29.2 +/- 3.5%); type: functional; design: scale not given: the % may be the effect or the level left
[18] = tested on: Hordeum vulgare; test: Inhibition of fatty acid synthesis in Hordeum vulgare (barley) using [14C]malonate assessed as inhibition of [14C]-labeled 16C fatty acid production at 200 uM after 3 hr by liquid scintillation counting; type: functional, organism-based
[19] = tested on: Hordeum vulgare; test: Inhibition of fatty acid synthesis in Hordeum vulgare (barley) using [14C]malonate assessed as inhibition of [14C]-labeled 22C fatty acid production at 200 uM after 3 hr by liquid scintillation counting; type: functional, organism-based
[20] = tested on: Hordeum vulgare; test: Inhibition of fatty acid synthesis in Hordeum vulgare (barley) using [14C]acetate assessed as [14C]-labeled 20C fatty acid level at 200 uM after 3 hr by liquid scintillation counting (reference value: 4.7 +/- 1.6%); type: functional; design: scale not given: the % may be the effect or the level left
[21] = tested on: Hordeum vulgare; test: Inhibition of fatty acid synthesis in Hordeum vulgare (barley) using [14C]malonate assessed as inhibition of [14C]-labeled 24C fatty acid production at 200 uM after 3 hr by liquid scintillation counting; type: functional, organism-based
[22] = tested on: Hordeum vulgare; test: Inhibition of fatty acid synthesis in Hordeum vulgare (barley) using [14C]acetate assessed as [14C]-labeled 18C fatty acid level at 200 uM after 3 hr by liquid scintillation counting (reference value: 60.3 +/- 1.3%); type: functional; design: scale not given: the % may be the effect or the level left
[23] = tested on: Cucumis sativus; test: Inhibition of fatty acid synthesis in Cucumis sativus (cucumber) using [14C]malonate assessed as inhibition of [14C]-labeled 22C fatty acid production at 200 uM after 3 hr by liquid scintillation counting; type: functional, organism-based
[24] = tested on: Hordeum vulgare; test: Inhibition of fatty acid synthesis in Hordeum vulgare (barley) using [14C]malonate assessed as inhibition of [14C]-labeled 24C fatty acid production at 30 uM after 3 hr by liquid scintillation counting; type: functional, organism-based
[25] = tested on: Hordeum vulgare; test: Inhibition of fatty acid synthesis in Hordeum vulgare (barley) using [14C]acetate assessed as [14C]-labeled 20C fatty acid level at 30 uM after 3 hr by liquid scintillation counting (reference value: 4.7 +/- 1.6%); type: functional; design: scale not given: the % may be the effect or the level left
[26] = tested on: Cucumis sativus; test: Inhibition of fatty acid synthesis in Cucumis sativus (cucumber) using [14C]malonate assessed as inhibition of [14C]-labeled 18C fatty acid production at 30 uM after 3 hr by liquid scintillation counting; type: functional, organism-based
[27] = tested on: Hordeum vulgare; test: Inhibition of fatty acid synthesis in Hordeum vulgare (barley) using [14C]malonate assessed as inhibition of [14C]-labeled 16C fatty acid production at 30 uM after 3 hr by liquid scintillation counting; type: functional, organism-based
[28] = tested on: Cucumis sativus; test: Inhibition of fatty acid synthesis in Cucumis sativus (cucumber) using [14C]malonate assessed as inhibition of [14C]-labeled 22C fatty acid production at 30 uM after 3 hr by liquid scintillation counting; type: functional, organism-based
[29] = tested on: Cucumis sativus; test: Inhibition of fatty acid synthesis in Cucumis sativus (cucumber) using [14C]malonate assessed as inhibition of [14C]-labeled 24C fatty acid production at 30 uM after 3 hr by liquid scintillation counting; type: functional, organism-based
[30] = tested on: Hordeum vulgare; test: Inhibition of fatty acid synthesis in Hordeum vulgare (barley) assessed as inhibition of [14C]malonate incoporation in total fatty acids at 30 uM measured after 3 hr by liquid scintillation counting; type: functional, organism-based
[31] = tested on: Cucumis sativus; test: Inhibition of fatty acid synthesis in Cucumis sativus (cucumber) using [14C]acetate assessed as [14C]-labeled 18C fatty acid level at 30 uM after 3 hr by liquid scintillation counting (reference value: 41.2 +/- 1.1%); type: functional; design: scale not given: the % may be the effect or the level left
[32] = tested on: Cucumis sativus; test: Inhibition of fatty acid synthesis in Cucumis sativus (cucumber) using [14C]malonate assessed as inhibition of [14C]-labeled 16C fatty acid production at 30 uM after 3 hr by liquid scintillation counting; type: functional, organism-based
[33] = tested on: Hordeum vulgare; test: Inhibition of fatty acid synthesis in Hordeum vulgare (barley) using [14C]acetate assessed as [14C]-labeled 22C fatty acid level at 30 uM after 3 hr by liquid scintillation counting (reference value: 5.5 +/- 0.2%); type: functional; design: scale not given: the % may be the effect or the level left
[34] = tested on: Cucumis sativus; test: Inhibition of fatty acid synthesis in Cucumis sativus (cucumber) assessed as inhibition of [14C]malonate incoporation in total fatty acids at 30 uM measured after 3 hr by liquid scintillation counting; type: functional, organism-based
[35] = tested on: Hordeum vulgare; test: Inhibition of fatty acid synthesis in Hordeum vulgare (barley) using [14C]malonate assessed as inhibition of [14C]-labeled 20C fatty acid production at 30 uM after 3 hr by liquid scintillation counting; type: functional, organism-based
[36] = tested on: Cucumis sativus; test: Inhibition of fatty acid synthesis in Cucumis sativus (cucumber) using [14C]acetate assessed as [14C]-labeled 22C fatty acid level at 30 uM after 3 hr by liquid scintillation counting (reference value: 17.9 +/- 2.5%); type: functional; design: scale not given: the % may be the effect or the level left
[37] = tested on: Hordeum vulgare; test: Inhibition of fatty acid synthesis in Hordeum vulgare (barley) using [14C]malonate assessed as inhibition of [14C]-labeled 18C fatty acid production at 30 uM after 3 hr by liquid scintillation counting; type: functional, organism-based
[38] = tested on: Cucumis sativus; test: Inhibition of fatty acid synthesis in Cucumis sativus (cucumber) using [14C]malonate assessed as inhibition of [14C]-labeled 20C fatty acid production at 30 uM after 3 hr by liquid scintillation counting; type: functional, organism-based
[39] = tested on: Cucumis sativus; test: Inhibition of fatty acid synthesis in Cucumis sativus (cucumber) using [14C]acetate assessed as [14C]-labeled 24C fatty acid level at 30 uM after 3 hr by liquid scintillation counting (reference value: 6.5 +/- 1%); type: functional; design: scale not given: the % may be the effect or the level left
[40] = tested on: Hordeum vulgare; test: as §1, with “30” for “200”, “0.5 10^6” for “0.5”, “10'6” for “10^6”; type: functional
[41] = tested on: Hordeum vulgare; test: Inhibition of fatty acid synthesis in Hordeum vulgare (barley) using [14C]acetate assessed as [14C]-labeled 18C fatty acid level at 30 uM after 3 hr by liquid scintillation counting (reference value: 60.3 +/- 1.3%); type: functional; design: scale not given: the % may be the effect or the level left
[42] = tested on: Cucumis sativus; test: Inhibition of fatty acid synthesis in Cucumis sativus (cucumber) assessed as inhibition of [14C]acetate incoporation in total fatty acids at 30 uM measured as total disintegration per g of fresh weight after 3 hr by liquid scintillation counting (reference value: 6.4 +/- 1.2 dpm x 10^6 g'1 fresh wt); type: functional
[43] = tested on: Cucumis sativus; test: Inhibition of fatty acid synthesis in Cucumis sativus (cucumber) using [14C]acetate assessed as [14C]-labeled 20C fatty acid level at 30 uM after 3 hr by liquid scintillation counting (reference value: 5.1 +/- 0.7%); type: functional; design: scale not given: the % may be the effect or the level left
[44] = tested on: Cucumis sativus; test: Inhibition of fatty acid synthesis in Cucumis sativus (cucumber) using [14C]acetate assessed as [14C]-labeled 16C fatty acid level at 30 uM after 3 hr by liquid scintillation counting (reference value: 29.2 +/- 3.5%); type: functional; design: scale not given: the % may be the effect or the level left
[45] = tested on: Hordeum vulgare; test: Inhibition of fatty acid synthesis in Hordeum vulgare (barley) using [14C]malonate assessed as inhibition of [14C]-labeled 22C fatty acid production at 30 uM after 3 hr by liquid scintillation counting; type: functional, organism-based
[46] = tested on: Hordeum vulgare; test: Inhibition of fatty acid synthesis in Hordeum vulgare (barley) using [14C]acetate assessed as [14C]-labeled 16C fatty acid level at 30 uM after 3 hr by liquid scintillation counting (reference value: 29.5 +/- 1.3%); type: functional; design: scale not given: the % may be the effect or the level left

Cc1ccccc1CO[C@H]1C[C@]2(C(C)C)CC[C@@]1(C)O2 (relative stereo) [REL-CINMETHYLIN]
inhibition [1]: inactive
Activity [2]: 13.4%
inhibition [3]: inactive
inhibition [4]: inactive
Activity [5]: 4.2%
Activity [6]: 5.1 ×10⁶ dpm
Activity [7]: 4.8%
inhibition [8]: inactive
Activity [9]: 8.4 ×10⁶ dpm
Activity [10]: 20.9%
inhibition [11]: inactive
Activity [12]: 48.6%
Activity [13]: 5.8%
inhibition [14]: inactive
inhibition [15]: inactive
inhibition [16]: inactive
Activity [17]: 28.9%
inhibition [18]: inactive
inhibition [19]: inactive
Activity [20]: 5.7%
inhibition [21]: inactive
Activity [22]: 67.7%
inhibition [23]: inactive

CCN(CC)C(=O)C(C)Oc1cccc2ccccc12 (stereo unspecified) [NAPROPAMIDE]
inhibition [24]: inactive
Activity [25]: 7.6%
inhibition [26]: inactive
inhibition [27]: inactive
inhibition [28]: inactive
inhibition [29]: inactive
inhibition [30]: inactive
Activity [31]: 43.1%
inhibition [32]: inactive
Activity [33]: 6.9%
inhibition [34]: inactive
inhibition [35]: inactive
Activity [36]: 19%
inhibition [37]: inactive
inhibition [38]: inactive
Activity [39]: 5.9%
Activity [40]: 5.2 ×10⁶ dpm
Activity [41]: 66.9%
Activity [42]: 6.2 ×10⁶ dpm
Activity [43]: 5.5%
Activity [44]: 26.5%
inhibition [45]: inactive
Activity [46]: 18.7%
